Reference: US9096835B2, “DNA polymerase” (Medical Research Council, priority 2003, dated 2015)

Key:
Format in all cases: biochemical
[1] = PCR with dATP replaced by FITC-12-dATP; settings: 50 cycle PCR, dATP completely replaced
Protocol: (§1) A PCR assay was used to screen and rank clones. Briefly, clones were normalized for activity in PCR with matched primers 3, 4 and activity with mismatched primers 1 and 2 (1 μM each) determined at minimal cycle number (15-25 cycles). Extension capability for different mismatches was determined by the same assay using mismatch primers 2 (C•C mismatch), 5 (A•A mismatch), 6 (G•G mismatch), 7 (G•A mismatch) with matched primer 3 or primer 1 (A•G mismatch) with matched primer 4. Incorporation of unnatural substrates in 50 cycle PCR was carried out using standard conditions and 50 μM […] dNTPs (Promega) or 50 μM FITC-12-dATP (Perkin-Elmer), Rhodamine-5-dUTP (Perkin-Elmer) or Biotin-16-dUTP (Roche) with equivalent amounts of the other 3 dNTPs (all 50 μM). Long PCR was carried out using a two-step cycling protocol as described (22) 94° C. for 2 minutes, followed by 20 cycles of (94° C. 15 sec, 68° C. 30 min) using 5 ng of phage λ DNA (New England Biolabs) template and either primers 9, 10, 11 with primer 12 or primer 13 with primers 10, 14.

phage λ DNA template = test: Long PCR; settings: standard PCR conditions, no auxiliary polymerases or processivity factors
Protocol: as §1

[2] = tested on: template containing 5-Nitroindole; test: Primer extension opposite 5-nitroindole; settings: 50° C., cell lysate, identical conditions as 4D11 and 5D4; data not shown
Protocol: 50 pmol of ^32P-labelled primer and 100 pmol of template in a volume of 44 μl were annealed in 1× Taq buffer. 4D11 or 5D4 polymerase as cell lysate (6 μl) was added and reactions were incubated at 50° C. for 15 minutes followed by addition of one dNTP (1 μl in total volume of 50 μl, final dNTP concentration 40 μM). 8 μl samples were taken at various time points and added to 8 μl stop solution (7M urea, 100 mM EDTA containing xylene cyanol F). At the end of the time course the remaining 3 dNTPs were added (final concentration each dNTP 40 μM) and reactions incubated at 50° C. for a further 30 minutes. Reaction samples were electrophoretically separated using 20% polyacrylamide gels at 25 W for 4 hours. The resultant gels were dried and scanned using a phosphorimager (Molecular Dynamics). Data was processed using the program ImageQuant (Molecular Dynamics).

[3] = Incorporation and extension of 5-nitroindole-5′-triphosphate; settings: 50° C., identical conditions as 4D11 and 5D4; data not shown
Protocol: 50 pmol of ^32P-labelled primer and 100 pmol of template in a volume of 44 μl were annealed in 1× Taq buffer. 4D11 or 5D4 polymerase as cell lysate (6 μl) was added and reactions were incubated at 50° C. for 15 minutes followed by addition of d5NITP (1 μl in total volume of 50 µL final dNTP concentration 40 μM). 8 μl samples were taken at various time points and added to 8 μl stop solution (7M urea, 100 mM EDTA containing xylene cyanol F). At the end of the time course the 4 native dNTPs were added (final concentration each dNTP 40 μM) and reactions incubated at 50° C. for a further 30 minutes.

[4] = Catalytic efficiency kcat/Km

Molecule	PCR amplification with FITC-12-dATP [1]	size of targets amplified in long PCR (phage λ DNA template)	size of targets amplified in long PCR (phage λ DNA template; listed as WtTaq)	extension opposite 5-nitroindole [2]	incorporation and extension of d5NITP [3]	size of amplification product fully labelled with FITC-12-dATP [1]	kcat/Km relative to Taq wild type [4]
wtTaq: Thermus aquaticus (Taq) wild type DNA polymerase [reference compound]	unable to generate any amplification products	≤ 9 kb	≤ 8.8 kb	almost undetectable extension reactions	almost undetectable extension reactions		
M1: Taq mutant G84A, D144G, K314R, E520G, F598L, A608V, E742G; SEQ ID NO: 1 (protein, Mutant Thermus aquaticus DNA polymerase) MRGMLPLFEPKGRVLLVDGHHLAYRTFHALKGLTTSRGEPVQAVYGFAKSLLKALKEDGDAVIVVFDAKAPSFRHEAYGGYKAARAPTPEDFPRQLALIKELVDLLGLARLEVPGYEADDVLASLAKKAEKEGYEVRILTADKGLYQLLSDRIHVLHPEGYLITPAWLWEKYGLRPDQWADYRALTGDESDNLPGVKGIGEKTARKLLEEWGSLEALLKNLDRLKPAIREKILAHMDDLKLSWDLAKVRTDLPLEVDFAKRREPDRERLRAFLERLEFGSLLHEFGLLESPKALEEAPWPPPEGAFVGFVLSRREPMWADLLALAAAAGGRVHRAPEPYKALRDLKEARGLLAKDLSVLALREGLGLPPGDDPMLLAYLLDPSNTTPEGVARRYGGEWTEEAGERAALSERLFANLWGRLEGEERLLWLYREVERPLSAVLAHMEATGVRLDVAYLRALSLEVAEEIARLEAEVFRLAGHPFNLNSRDQLERVLFDELGLPAIGKTEKTGKRSTSAAVLGALREAHPIVEKILQYRELTKLKSTYIDPLPDLIHPRTGRLHTRFNQTATATGRLSSSDPNLQNIPVRTPLGQRIRRAFIAEEGWLLVVLDYSQIELRVLAHLSGDENLIRVFQEGRDIHTETASWMFGVPREAVDPLMRRAAKTINFGVLYGMSAHRLSQELAIPYEEAQAFIERYFQSFPKVRAWIEKTLEEGRRRGYVETLFGRRRYVPDLEARVKSVRGAAERMAFNMPVQGTAADLMKLAMVKLFPRLEEMGARMLLQVHDELVLEAPKERAEAVARLAKEVMEGVYPLAVPLEVEVGIGEDWLSAKE						0.4 kb	14%
